According to the supplement of paper PMC10331698:
± gives the standard deviation of the averaged measurements.

Key:
Assay in all cases: LOEC (log10 uM (lowest observed effect concentration))
[1] = compound: O=C(O)C(F)(F)C(F)(F)C(F)(F)C(F)(F)C(F)(F)C(F)(F)C(F)(F)C(F)(F)Cl [9-Chloro-perfluorononanoic acid]
Experimental: (§1)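 BioMAP Diversity Plus panel in human primary cell co-cultures, 4 concentrations in duplicate blinded samples. Responses are log10 fold change versus DMSO control, processed with tcpl v2.1.0. A hit is called when responses at any concentration exceed the cutoff (the larger of 3*bmad or log10(1.2)); the lowest observed effect concentration (modl_ga, log10 uM) is reported for hits.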

[2] = compound: O=C(O)C(F)(F)OC(F)(F)C(F)(F)OC(F)(F)C(F)(F)C(F)(F)C(F)(F)F [Perfluoro-3,6-dioxadecanoic acid]
Experimental: as §1

[3] = compound: O=C(O)C(F)(F)C(F)(F)C(F)(F)C(F)(F)C(F)(F)C(F)(F)C(F)(F)C(F)(F)C(F)(F)C(F)(F)C(F)(F)C(F)(F)F [Perfluorotridecanoic acid]
Experimental: as §1

[4] = compound: C=CC(=O)OCCC(F)(F)C(F)(F)C(F)(F)C(F)(F)F [2-(Perfluorobutyl)ethyl acrylate]
Experimental: as §1

[5] = compound: CNS(=O)(=O)C(F)(F)C(F)(F)C(F)(F)C(F)(F)C(F)(F)C(F)(F)C(F)(F)C(F)(F)F [N-Methylperfluorooctanesulfonamide]
Experimental: as §1

[6] = compound: O=S(=O)(O)C(F)(F)C(F)(F)C(F)(F)C(F)(F)C(F)(F)C(F)(F)C(F)(F)C(F)(F)F [Perfluorooctanesulfonic acid]
Experimental: as §1

[7] = compound: N=C(N)C(F)(F)C(F)(F)C(F)(F)C(F)(F)C(F)(F)C(F)(F)C(F)(F)F [Perfluorooctanamidine]
Experimental: as §1

[8] = compound: O=P(O)(O)CCC(F)(F)C(F)(F)C(F)(F)C(F)(F)C(F)(F)C(F)(F)C(F)(F)C(F)(F)F [((Perfluorooctyl)ethyl)phosphonic acid]
Experimental: as §1

[9] = compound: O=S(=O)(O)C(F)(F)C(F)(F)C(F)(F)C(F)(F)C(F)(F)C(F)(F)C(F)(F)C(F)(F)F [Potassium perfluorooctanesulfonate]
Experimental: as §1

[10] = compound: Cn1cnc([N+](=O)[O-])c1Sc1ncnc2[nH]cnc12 [Azathioprine]
Experimental: as §1

Test System: 3C Eselectin up
- LOEC (log10 uM) [1]: 1.78

Test System: BF4T MMP3 up
- LOEC (log10 uM) [2]: 1.3

Test System: CASM3C SAA up
- LOEC (log10 uM) [3]: 0.477 ± 0.68

Test System: BT PBMCCytotoxicity down
- LOEC (log10 uM) [4]: 1.54 ± 0.34

Test System: KF3CT TIMP2 down
- LOEC (log10 uM) [1]: 1.78

Test System: BF4T tPA down
- LOEC (log10 uM) [1]: 1.3

Test System: 3C HLADR down
- LOEC (log10 uM) [1]: 1.78
- LOEC (log10 uM) [5]: 1.3

Test System: BE3C IL1a down
- LOEC (log10 uM) [1]: 1.54 ± 0.34
- LOEC (log10 uM) [6]: 1.78
- LOEC (log10 uM) [2]: 1.78

Test System: SAg SRB down
- LOEC (log10 uM) [1]: 1.78
- LOEC (log10 uM) [7]: 1.78
- LOEC (log10 uM) [8]: 1.78

Test System: BF4T MMP9 down
- LOEC (log10 uM) [1]: 1.78

Test System: BE3C EGFR down
- LOEC (log10 uM) [1]: 1.3
- LOEC (log10 uM) [6]: 1.3
- LOEC (log10 uM) [2]: 1.78
- LOEC (log10 uM) [9]: 1.3

Test System: MyoF VCAM1 down
- LOEC (log10 uM) [1]: 1.54 ± 0.34

Test System: BF4T PAI1 down
- LOEC (log10 uM) [1]: 1.78

Test System: BT xTNFa down
- LOEC (log10 uM) [4]: 1.3
- LOEC (log10 uM) [10]: 0.716 ± 0.34

Test System: KF3CT IP10 down
- LOEC (log10 uM) [1]: 1.78
- LOEC (log10 uM) [2]: 1.78

Test System: BE3C MMP9 down
- LOEC (log10 uM) [1]: 1.78
- LOEC (log10 uM) [5]: 0.573 ± 0.39
- LOEC (log10 uM) [6]: 1.3
- LOEC (log10 uM) [9]: 1.3

Test System: 3C Thrombomodulin down
- LOEC (log10 uM) [4]: 1.54 ± 0.34

Test System: SAg IL8 down
- LOEC (log10 uM) [1]: 1.78
- LOEC (log10 uM) [4]: 1.78
- LOEC (log10 uM) [10]: 1.48

Test System: LPS SRB down
- LOEC (log10 uM) [1]: 1.78

Test System: BF4T uPA down
- LOEC (log10 uM) [1]: 1.78

Test System: SAg CD38 down
- LOEC (log10 uM) [1]: 1.78
- LOEC (log10 uM) [4]: 1.78

Test System: BE3C uPA down
- LOEC (log10 uM) [1]: 1.78
- LOEC (log10 uM) [6]: 1.78

Test System: 3C SRB down
- LOEC (log10 uM) [1]: 1.78
- LOEC (log10 uM) [10]: 1.48
- LOEC (log10 uM) [2]: 1.78

Test System: BE3C ITAC down
- LOEC (log10 uM) [1]: 1.3
- LOEC (log10 uM) [6]: 1.54 ± 0.34
- LOEC (log10 uM) [9]: 1.3

Test System: BE3C ITAC up
- LOEC (log10 uM) [2]: 0.845

Test System: CASM3C VCAM1 down
- LOEC (log10 uM) [5]: 0.801 ± 0.71
- LOEC (log10 uM) [4]: 1.78
- LOEC (log10 uM) [10]: 1.48
- LOEC (log10 uM) [3]: 0.954

Test System: KF3CT IL8 down
- LOEC (log10 uM) [1]: 1.78
- LOEC (log10 uM) [5]: 1.3
- LOEC (log10 uM) [2]: 1.78

Test System: KF3CT PAI1 down
- LOEC (log10 uM) [1]: 1.3
- LOEC (log10 uM) [6]: 1.78
- LOEC (log10 uM) [9]: 1.78

Test System: SAg CD40 down
- LOEC (log10 uM) [1]: 1.78
- LOEC (log10 uM) [4]: 1.78
- LOEC (log10 uM) [3]: 1.22 ± 0.37
- LOEC (log10 uM) [8]: 1.78

Test System: BE3C tPA up
- LOEC (log10 uM) [8]: 1.3

Test System: 4H SRB down
- LOEC (log10 uM) [1]: 1.78
- LOEC (log10 uM) [3]: 1.22 ± 0.37

Test System: hDFCGF MMP1 up
- LOEC (log10 uM) [4]: 1.54 ± 0.34

Test System: MyoF TIMP1 down
- LOEC (log10 uM) [1]: 1.78

Test System: BE3C MMP1 up
- LOEC (log10 uM) [7]: 1.78
- LOEC (log10 uM) [2]: 1.3
- LOEC (log10 uM) [9]: 0.573 ± 0.39

Test System: KF3CT uPA down
- LOEC (log10 uM) [1]: 1.78

Test System: BF4T IL8 up
- LOEC (log10 uM) [2]: 1.07 ± 0.32

Test System: IMphg VCAM1 down
- LOEC (log10 uM) [1]: 1.78
- LOEC (log10 uM) [7]: 1.78
- LOEC (log10 uM) [3]: 1.22 ± 0.37

Test System: BF4T ICAM1 down
- LOEC (log10 uM) [1]: 1.78

Test System: hDFCGF PAI1 down
- LOEC (log10 uM) [1]: 1.78
- LOEC (log10 uM) [10]: 1.48
- LOEC (log10 uM) [7]: 1.78
- LOEC (log10 uM) [8]: 1.78

Test System: BT xIL2 down
- LOEC (log10 uM) [4]: 1.78
- LOEC (log10 uM) [10]: 1.48

Test System: hDFCGF CollagenIII down
- LOEC (log10 uM) [1]: 1.3
- LOEC (log10 uM) [10]: 0.977 ± 0.71
- LOEC (log10 uM) [7]: 1.3
- LOEC (log10 uM) [2]: 1.78
- LOEC (log10 uM) [3]: 0.477
- LOEC (log10 uM) [8]: 1.3

Test System: BF4T MCP1 down
- LOEC (log10 uM) [1]: 0.801 ± 0.71
- LOEC (log10 uM) [2]: 0.573 ± 0.39

Test System: MyoF SRB down
- LOEC (log10 uM) [1]: 1.78

Test System: LPS TNFa down
- LOEC (log10 uM) [10]: 1.48

Test System: hDFCGF IP10 down
- LOEC (log10 uM) [1]: 1.3
- LOEC (log10 uM) [4]: 1.3
- LOEC (log10 uM) [10]: 1.22 ± 0.37
- LOEC (log10 uM) [6]: 1.3
- LOEC (log10 uM) [2]: 1.54 ± 0.34
- LOEC (log10 uM) [9]: 1.07 ± 0.32
- LOEC (log10 uM) [3]: 0.239 ± 0.34

Test System: CASM3C Proliferation down
- LOEC (log10 uM) [10]: 1.48

Test System: BE3C SRB down
- LOEC (log10 uM) [1]: 1.54 ± 0.34
- LOEC (log10 uM) [6]: 1.3
- LOEC (log10 uM) [9]: 1.3

Test System: KF3CT MIG down
- LOEC (log10 uM) [1]: 1.78

Test System: hDFCGF TIMP2 down
- LOEC (log10 uM) [1]: 1.3
- LOEC (log10 uM) [6]: 1.78
- LOEC (log10 uM) [9]: 1.54 ± 0.34

Test System: IMphg IL1a up
- LOEC (log10 uM) [5]: 1.54 ± 0.34

Test System: hDFCGF MIG down
- LOEC (log10 uM) [1]: 1.3
- LOEC (log10 uM) [4]: 1.3
- LOEC (log10 uM) [2]: 1.54 ± 0.34
- LOEC (log10 uM) [9]: 1.78
- LOEC (log10 uM) [3]: 0.716 ± 0.34

Test System: BT xIL17A down
- LOEC (log10 uM) [4]: 1.54 ± 0.34
- LOEC (log10 uM) [10]: 1.48

Test System: BT PBMCCytotoxicity up
- LOEC (log10 uM) [1]: 1.78
- LOEC (log10 uM) [2]: 1.78

Test System: MyoF CollagenIII down
- LOEC (log10 uM) [1]: 1.3
- LOEC (log10 uM) [2]: 1.78

Test System: hDFCGF VCAM1 down
- LOEC (log10 uM) [1]: 1.78
- LOEC (log10 uM) [5]: 0.573 ± 0.39
- LOEC (log10 uM) [4]: 1.3
- LOEC (log10 uM) [10]: 1.48
- LOEC (log10 uM) [6]: 1.78
- LOEC (log10 uM) [7]: 1.54 ± 0.34
- LOEC (log10 uM) [2]: 1.3
- LOEC (log10 uM) [9]: 1.78
- LOEC (log10 uM) [3]: 0.977 ± 0.71

Test System: IMphg MCSF down
- LOEC (log10 uM) [10]: 1.48

Test System: BE3C ICAM1 down
- LOEC (log10 uM) [1]: 1.78

Test System: BF4T IL8 down
- LOEC (log10 uM) [5]: 1.78

Test System: IMphg CD69 down
- LOEC (log10 uM) [1]: 1.78
- LOEC (log10 uM) [2]: 1.78

Test System: LPS MCSF down
- LOEC (log10 uM) [10]: 1.48
- LOEC (log10 uM) [3]: 1.48
- LOEC (log10 uM) [8]: 1.78
